Results as given in US4656166A, “Antibiotic compounds derived from cephalosporins, process for their production and pharmaceutical compositions” (Sanofi, priority 1983, dated 1987).
In brackets after ≈: the same amount, converted by molar mass.

Legend:
Format in all cases: cell-based
Klebsiella RO 30 = test: MIC, in vitro dilution method, Klebsiella RO 30 (Table III); settings: RO30; Klebsiella RO 30; dilution method; read-out: MIC
From the text: (§1) The products of the invention have been studied as regards their pharmacological properties and, more especially, bacteriostatic action. This has been determined in vitro by the dilution method, and the study was on Gram negative strains.
(§2) Results, expressed in minimum inhibiting concentrations (MIC-- μg/ml), are collected in the following table (Table III).

Serratia RL 72 = test: MIC, in vitro dilution method, Serratia RL 72 (Table III); settings: RL72
From the text: as §1, §2

Enterobacter RO 154 = test: MIC, in vitro dilution method, Enterobacter RO 154 (Table III); settings: RO154; Enterobacter RO 154; dilution method; read-out: MIC
From the text: as §1, §2

Escherichia coli SOL 90 = test: MIC, in vitro dilution method, Escherichia coli SOL 90 (Table III); settings: SOL90; Escherichia coli SOL 90; dilution method; read-out: MIC
From the text: as §1, §2

[1] = test system: Proteus vulgaris RL 99 bis; test: MIC, in vitro dilution method, Proteus vulgaris RL 99 bis (Table III); settings: RL99BIS; Proteus vulgaris RL 99 bis; dilution method; read-out: MIC
From the text: as §1, §2

Citrobacter RL 49 = test: MIC, in vitro dilution method, Citrobacter RL 49 (Table III); settings: RL49; Citrobacter RL 49; dilution method; read-out: MIC
From the text: as §1, §2

Pseudomonas RL 112 = test: MIC, in vitro dilution method, Pseudomonas RL 112 (Table III); settings: RL112
From the text: as §1, §2

| Compound | MIC (Klebsiella RO 30) [µg/mL] | MIC (Serratia RL 72) [µg/mL] | MIC (Enterobacter RO 154) [µg/mL] | MIC (Escherichia coli SOL 90) [µg/mL] | MIC [1] [µg/mL] | MIC (Citrobacter RL 49) [µg/mL] | MIC (Pseudomonas RL 112) [µg/mL] |
| --- | --- | --- | --- | --- | --- | --- | --- |
| Nc1nc(/C(=N/OC2(C(=O)O)CCC2)C(=O)NC2C(=O)N3C(C(=O)O)=C(COC(=O)C4(N)CCCC4)C[S+]([O-])C23)cs1 (stereo not drawn) [42 210] | 0.5 (≈ 0.8 µM) | 1 (≈ 1.6 µM) | 0.25 (≈ 0.4 µM) | 1 (≈ 1.6 µM) | 0.25 (≈ 0.4 µM) | 0.5 (≈ 0.8 µM) | 4 (≈ 6.4 µM) |
| NC[C@H]1CC[C@H](C(=O)OCC2=C(C(=O)O)N3C(=O)C(NC(=O)/C(=N\OCC(=O)O)c4csc(N)n4)C3[S+]([O-])C2)CC1 (stereo partly drawn) [42 211] | ≤ 0.12 | ≤ 0.12 | ≤ 0.12 | ≤ 0.12 | ≤ 0.12 | ≤ 0.12 | 64 (≈ 104 µM) |
| NC[C@H]1CC[C@H](C(=O)OCC2=C(C(=O)O)N3C(=O)C(NC(=O)/C(=N\OC4(C(=O)O)CCC4)c4csc(N)n4)C3[S+]([O-])C2)CC1 (stereo partly drawn) [42 212] | ≤ 0.12 | 0.25 (≈ 0.383 µM) | ≤ 0.12 | ≤ 0.12 | ≤ 0.12 | ≤ 0.12 | 4 (≈ 6.13 µM) |
| CC(O/N=C(\C(=O)NC1C(=O)N2C(C(=O)O)=C(COC(=O)CCCCN)C[S+]([O-])C12)c1csc(N)n1)C(=O)O (stereo not drawn) [42 214] | ≤ 0.12 | 0.5 (≈ 0.852 µM) | ≤ 0.12 | ≤ 0.12 | ≤ 0.12 | ≤ 0.12 | 16 (≈ 27.3 µM) |
| CC(O/N=C(\C(=O)NC1C(=O)N2C(C(=O)O)=C(COC(=O)C3CCNCC3)C[S+]([O-])C12)c1csc(N)n1)C(=O)O (stereo not drawn) [42 215] | ≤ 0.12 | 0.25 (≈ 0.418 µM) | ≤ 0.12 | ≤ 0.12 | ≤ 0.12 | ≤ 0.12 | 8 (≈ 13.4 µM) |
| CC(O/N=C(\C(=O)NC1C(=O)N2C(C(=O)O)=C(COC(=O)c3ccc(CN)cc3)C[S+]([O-])C12)c1csc(N)n1)C(=O)O (stereo not drawn) [42 216] | ≤ 0.12 | 0.5 (≈ 0.806 µM) | ≤ 0.12 | ≤ 0.12 | ≤ 0.12 | ≤ 0.12 | 8 (≈ 12.9 µM) |
| CC(O/N=C(\C(=O)NC1C(=O)N2C(C(=O)O)=C(COC(=O)[C@H]3CC[C@H](CN)CC3)C[S+]([O-])C12)c1csc(N)n1)C(=O)O (stereo partly drawn) [42 217] | ≤ 0.12 | 0.25 (≈ 0.399 µM) | ≤ 0.12 | ≤ 0.12 | ≤ 0.12 | ≤ 0.12 | 16 (≈ 25.5 µM) |
| CC(C)(ON=C(C(=O)NC1C(=O)N2C(C(=O)O)=C(COC(=O)C3CCCCC3CN)C[S+]([O-])C12)c1csc(N)n1)C(=O)O (stereo not drawn) [42 321] | 0.5 (≈ 0.78 µM) | 1 (≈ 1.56 µM) | 0.25 (≈ 0.39 µM) | 0.5 (≈ 0.78 µM) | ≤ 0.125 | 0.5 (≈ 0.78 µM) | 8 (≈ 12.5 µM) |
| CC(C)(O/N=C(\C(=O)NC1C(=O)N2C(C(=O)O)=C(COC(=O)CC3CCCCN3)C[S+]([O-])C12)c1csc(N)n1)C(=O)O (stereo not drawn) [42 371] | 0.25 (≈ 0.399 µM) | 0.5 (≈ 0.798 µM) | 0.25 (≈ 0.399 µM) | 0.5 (≈ 0.798 µM) | ≤ 0.125 | 0.25 (≈ 0.399 µM) | 8 (≈ 12.8 µM) |
| CC(C)(O/N=C(\C(=O)NC1C(=O)N2C(C(=O)O)=C(COC(=O)CC3CCCNC3)C[S+]([O-])C12)c1csc(N)n1)C(=O)O (stereo not drawn) [42 372] | 0.25 (≈ 0.399 µM) | 0.25 (≈ 0.399 µM) | ≤ 0.125 | 0.25 (≈ 0.399 µM) | ≤ 0.125 | ≤ 0.125 | 4 (≈ 6.38 µM) |
| CC(C)(O/N=C(\C(=O)NC1C(=O)N2C(C(=O)O)=C(COC(=O)c3cccc(NC(=O)CN)c3)C[S+]([O-])C12)c1csc(N)n1)C(=O)O (stereo not drawn) [42 374] | 0.25 (≈ 0.369 µM) | 1 (≈ 1.48 µM) | 0.25 (≈ 0.369 µM) | 0.5 (≈ 0.738 µM) | ≤ 0.125 | 0.25 (≈ 0.369 µM) | 4 (≈ 5.9 µM) |
| Cc1ccc(C(=O)OCC2=C(C(=O)O)N3C(=O)C(NC(=O)/C(=N\OC(C)(C)C(=O)O)c4csc(N)n4)C3[S+]([O-])C2)cc1CN (stereo not drawn) [42 379] | ≤ 0.125 | 0.5 (≈ 0.771 µM) | ≤ 0.125 | 0.25 (≈ 0.385 µM) | ≤ 0.125 | ≤ 0.125 | 8 (≈ 12.3 µM) |
| Cc1cc(C(=O)OCC2=C(C(=O)O)N3C(=O)C(NC(=O)/C(=N\OC(C)(C)C(=O)O)c4csc(N)n4)C3[S+]([O-])C2)ccc1CN (stereo not drawn) [42 380] | ≤ 0.125 | 1 (≈ 1.54 µM) | ≤ 0.125 | ≤ 0.125 | ≤ 0.125 | ≤ 0.125 | 4 (≈ 6.17 µM) |
| CCNCc1ccc(C(=O)OCC2=C(C(=O)O)N3C(=O)C(NC(=O)/C(=N\OC(C)(C)C(=O)O)c4csc(N)n4)C3[S+]([O-])C2)cc1 (stereo not drawn) [42 396] | ≤ 0.125 | 1 (≈ 1.51 µM) | ≤ 0.125 | ≤ 0.125 | ≤ 0.125 | ≤ 0.125 | 8 (≈ 12.1 µM) |
| CC(C)NCc1ccc(C(=O)OCC2=C(C(=O)O)N3C(=O)C(NC(=O)/C(=N\OC(C)(C)C(=O)O)c4csc(N)n4)C3[S+]([O-])C2)cc1 (stereo not drawn) [42 397] | ≤ 0.125 | 1 (≈ 1.48 µM) | ≤ 0.125 | ≤ 0.125 | ≤ 0.125 | ≤ 0.125 | 8 (≈ 11.8 µM) |
